Measured values reported in patent US6436925B1, “Substituted benzamides, their production and their use as cysteine protease inhibitors” (Abbott Laboratories, priority 1998, dated 2002).

Biological target: T1, calpain I (human μ-calpain) (Homo sapiens, UniProt P07384)
T1 construct: Human μ-calpain is isolated from erythrocytes; from tissue; host or cells: human erythrocytes
T1 sequence (P07384 1-714): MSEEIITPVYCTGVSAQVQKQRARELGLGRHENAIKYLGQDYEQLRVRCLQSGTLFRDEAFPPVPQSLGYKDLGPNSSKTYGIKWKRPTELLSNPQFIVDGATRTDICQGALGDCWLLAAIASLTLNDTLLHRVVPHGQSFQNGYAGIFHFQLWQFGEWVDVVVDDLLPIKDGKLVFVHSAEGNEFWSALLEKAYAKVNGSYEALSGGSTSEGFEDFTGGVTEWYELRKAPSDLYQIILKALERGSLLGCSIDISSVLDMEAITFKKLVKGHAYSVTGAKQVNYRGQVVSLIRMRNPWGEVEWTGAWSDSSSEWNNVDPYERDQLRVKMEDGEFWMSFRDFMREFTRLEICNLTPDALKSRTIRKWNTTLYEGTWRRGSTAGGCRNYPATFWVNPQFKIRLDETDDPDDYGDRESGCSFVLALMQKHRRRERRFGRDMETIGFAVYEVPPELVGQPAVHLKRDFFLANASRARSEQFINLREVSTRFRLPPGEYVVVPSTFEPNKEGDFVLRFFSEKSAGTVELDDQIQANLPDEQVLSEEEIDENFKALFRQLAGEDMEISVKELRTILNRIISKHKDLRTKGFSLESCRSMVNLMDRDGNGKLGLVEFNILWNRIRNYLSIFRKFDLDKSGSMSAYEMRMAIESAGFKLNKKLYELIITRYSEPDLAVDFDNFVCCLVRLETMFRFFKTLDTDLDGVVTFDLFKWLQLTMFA
T1 sequence (P04632 1-268 partner): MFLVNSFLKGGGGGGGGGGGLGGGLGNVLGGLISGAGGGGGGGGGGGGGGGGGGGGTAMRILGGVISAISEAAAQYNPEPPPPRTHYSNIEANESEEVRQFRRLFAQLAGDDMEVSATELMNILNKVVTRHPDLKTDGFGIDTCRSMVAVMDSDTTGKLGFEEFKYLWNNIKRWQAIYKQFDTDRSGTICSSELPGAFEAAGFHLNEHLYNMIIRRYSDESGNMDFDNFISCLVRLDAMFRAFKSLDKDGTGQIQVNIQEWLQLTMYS
Assay: Calpain I and II assay (fluorogenic substrate Suc-Leu-Tyr-AMC)
Type: biochemical
Procedure: The inhibitory effect of the benzamides I has been determined using enzyme assays known from the literature, determining as criterion of effect a concentration of the inhibitor at which 50% of the enzyme activity is inhibited (=IC50). The amides I were measured in this way for their inhibitory effect on calpain I, calpain II and cathepsin B.
The testing of the inhibitory properties of calpain inhibitors takes place in buffer with 50 mM tris-HCl, pH 7.5; 0.1 M NaCl; 1 mM dithiotreithol [sic]; 0.11 mM CaCl2, using the fluorogenic calpain substrate Suc-Leu-Tyr-AMC (25 mM dissolved in DMSO, Bachem/switzerland). Human μ-calpain is isolated from erythrocytes, and enzyme with a purity >95%, assessed by SDS-PAGE, Western blot analysis and N-terminal sequencing, is obtained after more [sic] chromatographic steps (DEAE-Sepharose, phenyl-Sepharose, Superdex 200 and blue Sepharose). The fluorescence of the cleavage product 7-amino-4-methylcoumarin (AMC) is followed in a Spex Fluorolog fluorimeter at λex=380 nm and λem =460 nm. […]
In a test mixture, 10 μl of substrate (250 μM final) and then 10 μl of μ-calpain (2 μg/ml final, i.e. 18 nM) are added to a 1 ml cuvette containing buffer. The calpain-mediated cleavage of the substrate is measured for from 15 to 20 min. […] Ki values are determined using the classical equation for reversible inhibition: […]

inhibition at 1 µM (at a concentration of 1 μM): > 50% | Ki (calpain I, inferred from more than 50% inhibition at 1 μM): < 1000 nM
SMILES: O=C(N[C@@H](Cc1ccccc1)C(=O)CNS(=O)(=O)c1ccccc1)c1cccc(NS(=O)(=O)c2ccc3ccccc3c2)c1 [Example 1, 3(2-Naphthylsulfonamido)-N(3(S)-4-phenyl-1-phenylsulfonamidobutan-2-on-3-yl)benzamide]
